Measurements from ChEMBL document CHEMBL4507276 (2021).

Experiments:
[1] = tested on: Receptor-type tyrosine-protein kinase FLT3 (Homo sapiens), P36888 [UNDEFINED MUTATION]; settings: Compound concentration 1000.0 nM
[2] = biological target: Peripheral plasma membrane protein CASK (Homo sapiens) (UniProt O14936); settings: Compound concentration 1000.0 nM
[3] = biological target: Fibroblast growth factor receptor 4 (Homo sapiens) (UniProt P22455); settings: Compound concentration 1000.0 nM
[4] = biological target: 1-phosphatidylinositol 3-phosphate 5-kinase (Homo sapiens) (UniProt Q9Y2I7); settings: Compound concentration 1000.0 nM
[5] = biological target: Serine/threonine-protein kinase Nek6 (Homo sapiens) (UniProt Q9HC98); settings: Compound concentration 1000.0 nM
[6] = biological target: T1, Ephrin type-B receptor 3 (Homo sapiens) (UniProt P54753); settings: Compound concentration 1000.0 nM
T1 sequence (whole entry): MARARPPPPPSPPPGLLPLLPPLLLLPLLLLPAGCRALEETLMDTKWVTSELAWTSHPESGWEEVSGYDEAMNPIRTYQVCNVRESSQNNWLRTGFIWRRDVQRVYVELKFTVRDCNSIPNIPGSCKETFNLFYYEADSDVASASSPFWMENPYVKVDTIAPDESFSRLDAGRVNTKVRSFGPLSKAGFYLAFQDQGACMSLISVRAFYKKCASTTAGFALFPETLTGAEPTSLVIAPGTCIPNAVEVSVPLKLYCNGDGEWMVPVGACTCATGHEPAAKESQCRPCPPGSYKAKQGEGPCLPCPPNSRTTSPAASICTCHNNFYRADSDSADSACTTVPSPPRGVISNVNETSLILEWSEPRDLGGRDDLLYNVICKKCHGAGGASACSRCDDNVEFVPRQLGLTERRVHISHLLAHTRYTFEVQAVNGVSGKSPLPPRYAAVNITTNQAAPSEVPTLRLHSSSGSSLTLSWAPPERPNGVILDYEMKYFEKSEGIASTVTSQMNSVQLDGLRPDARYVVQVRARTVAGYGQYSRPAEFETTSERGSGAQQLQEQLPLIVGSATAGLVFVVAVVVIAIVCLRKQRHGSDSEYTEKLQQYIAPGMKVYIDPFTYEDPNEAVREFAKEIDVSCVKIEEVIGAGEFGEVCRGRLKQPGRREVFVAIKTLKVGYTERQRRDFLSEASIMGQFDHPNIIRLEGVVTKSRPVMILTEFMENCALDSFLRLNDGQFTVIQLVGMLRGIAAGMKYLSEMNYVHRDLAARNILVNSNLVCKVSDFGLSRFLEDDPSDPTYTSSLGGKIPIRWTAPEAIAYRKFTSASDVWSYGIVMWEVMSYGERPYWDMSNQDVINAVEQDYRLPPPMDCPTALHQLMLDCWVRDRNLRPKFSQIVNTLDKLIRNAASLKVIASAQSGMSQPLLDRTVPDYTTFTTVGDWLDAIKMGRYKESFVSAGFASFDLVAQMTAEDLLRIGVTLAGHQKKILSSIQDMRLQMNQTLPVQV

[7] = biological target: BMP-2-inducible protein kinase (Homo sapiens) (UniProt Q9NSY1); settings: Compound concentration 1000.0 nM
[8] = biological target: Serine/threonine-protein kinase TAO1 (Homo sapiens) (UniProt Q7L7X3); settings: Compound concentration 1000.0 nM
[9] = biological target: Calcium/calmodulin-dependent protein kinase type II subunit beta (Homo sapiens) (UniProt Q13554); settings: Compound concentration 1000.0 nM
[10] = biological target: Microtubule-associated serine/threonine-protein kinase 1 (Homo sapiens) (UniProt Q9Y2H9); settings: Compound concentration 1000.0 nM
[11] = biological target: RAC-alpha serine/threonine-protein kinase (Homo sapiens) (UniProt P31749); settings: Compound concentration 1000.0 nM
[12] = biological target: Cyclin-dependent kinase 2 (Homo sapiens) (UniProt P24941); settings: Compound concentration 1000.0 nM
[13] = biological target: T2, cGMP-dependent protein kinase 2 (Homo sapiens) (UniProt Q13237); settings: Compound concentration 1000.0 nM
T2 sequence (whole entry): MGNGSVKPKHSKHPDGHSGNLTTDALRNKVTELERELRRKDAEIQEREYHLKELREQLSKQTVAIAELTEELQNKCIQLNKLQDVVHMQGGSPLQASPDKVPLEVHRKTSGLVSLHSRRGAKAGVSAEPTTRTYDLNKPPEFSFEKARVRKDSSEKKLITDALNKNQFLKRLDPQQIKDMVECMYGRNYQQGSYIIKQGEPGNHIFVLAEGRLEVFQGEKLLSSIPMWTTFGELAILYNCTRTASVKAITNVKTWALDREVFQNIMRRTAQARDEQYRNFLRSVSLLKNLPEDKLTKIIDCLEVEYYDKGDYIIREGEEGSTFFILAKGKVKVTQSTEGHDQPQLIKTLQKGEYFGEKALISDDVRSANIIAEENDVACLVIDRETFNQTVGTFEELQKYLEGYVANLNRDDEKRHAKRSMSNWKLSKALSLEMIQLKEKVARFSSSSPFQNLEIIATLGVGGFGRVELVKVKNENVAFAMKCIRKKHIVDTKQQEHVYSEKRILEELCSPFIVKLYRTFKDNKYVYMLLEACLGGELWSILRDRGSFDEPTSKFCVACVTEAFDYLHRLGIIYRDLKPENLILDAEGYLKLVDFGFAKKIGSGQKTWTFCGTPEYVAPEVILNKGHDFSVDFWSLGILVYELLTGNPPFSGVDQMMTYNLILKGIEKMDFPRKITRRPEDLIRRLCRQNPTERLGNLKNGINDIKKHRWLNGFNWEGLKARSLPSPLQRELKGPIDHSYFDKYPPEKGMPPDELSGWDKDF

[14] = biological target: Histamine H3 receptor (Homo sapiens) (UniProt Q9Y5N1); settings: Compound concentration 10.0 uM
[15] = biological target: T3, Serine/threonine-protein kinase Sgk1 (Homo sapiens) (UniProt O00141); settings: Compound concentration 1000.0 nM
T3 sequence (whole entry): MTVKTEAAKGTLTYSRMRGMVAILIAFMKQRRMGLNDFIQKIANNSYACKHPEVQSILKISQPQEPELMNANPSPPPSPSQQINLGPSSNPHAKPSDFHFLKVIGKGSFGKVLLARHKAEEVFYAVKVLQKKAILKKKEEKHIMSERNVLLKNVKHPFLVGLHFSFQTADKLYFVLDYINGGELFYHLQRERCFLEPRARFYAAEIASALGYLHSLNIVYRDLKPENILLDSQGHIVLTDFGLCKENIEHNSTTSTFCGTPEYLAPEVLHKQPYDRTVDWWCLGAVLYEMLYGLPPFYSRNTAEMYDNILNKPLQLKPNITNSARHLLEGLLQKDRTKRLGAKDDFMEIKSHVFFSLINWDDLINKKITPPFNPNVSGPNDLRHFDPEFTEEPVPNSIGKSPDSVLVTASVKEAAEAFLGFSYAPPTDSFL

Sequence of RAC-alpha serine/threonine-protein kinase (Homo sapiens) (P31749 whole entry): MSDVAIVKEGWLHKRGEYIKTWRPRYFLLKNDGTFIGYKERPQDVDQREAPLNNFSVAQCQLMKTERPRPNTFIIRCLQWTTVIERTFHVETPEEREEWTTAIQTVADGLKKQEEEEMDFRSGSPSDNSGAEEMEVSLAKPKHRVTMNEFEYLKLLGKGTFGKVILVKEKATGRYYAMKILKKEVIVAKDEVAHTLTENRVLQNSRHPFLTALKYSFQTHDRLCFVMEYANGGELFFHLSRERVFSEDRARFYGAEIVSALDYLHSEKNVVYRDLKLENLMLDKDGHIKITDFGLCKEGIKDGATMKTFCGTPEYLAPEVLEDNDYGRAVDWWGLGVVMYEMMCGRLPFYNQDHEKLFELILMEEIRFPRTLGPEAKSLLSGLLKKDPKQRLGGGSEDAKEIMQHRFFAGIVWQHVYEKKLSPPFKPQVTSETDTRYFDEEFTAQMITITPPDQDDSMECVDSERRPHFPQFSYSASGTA
Sequence of 1-phosphatidylinositol 3-phosphate 5-kinase (Homo sapiens) (Q9Y2I7 whole entry): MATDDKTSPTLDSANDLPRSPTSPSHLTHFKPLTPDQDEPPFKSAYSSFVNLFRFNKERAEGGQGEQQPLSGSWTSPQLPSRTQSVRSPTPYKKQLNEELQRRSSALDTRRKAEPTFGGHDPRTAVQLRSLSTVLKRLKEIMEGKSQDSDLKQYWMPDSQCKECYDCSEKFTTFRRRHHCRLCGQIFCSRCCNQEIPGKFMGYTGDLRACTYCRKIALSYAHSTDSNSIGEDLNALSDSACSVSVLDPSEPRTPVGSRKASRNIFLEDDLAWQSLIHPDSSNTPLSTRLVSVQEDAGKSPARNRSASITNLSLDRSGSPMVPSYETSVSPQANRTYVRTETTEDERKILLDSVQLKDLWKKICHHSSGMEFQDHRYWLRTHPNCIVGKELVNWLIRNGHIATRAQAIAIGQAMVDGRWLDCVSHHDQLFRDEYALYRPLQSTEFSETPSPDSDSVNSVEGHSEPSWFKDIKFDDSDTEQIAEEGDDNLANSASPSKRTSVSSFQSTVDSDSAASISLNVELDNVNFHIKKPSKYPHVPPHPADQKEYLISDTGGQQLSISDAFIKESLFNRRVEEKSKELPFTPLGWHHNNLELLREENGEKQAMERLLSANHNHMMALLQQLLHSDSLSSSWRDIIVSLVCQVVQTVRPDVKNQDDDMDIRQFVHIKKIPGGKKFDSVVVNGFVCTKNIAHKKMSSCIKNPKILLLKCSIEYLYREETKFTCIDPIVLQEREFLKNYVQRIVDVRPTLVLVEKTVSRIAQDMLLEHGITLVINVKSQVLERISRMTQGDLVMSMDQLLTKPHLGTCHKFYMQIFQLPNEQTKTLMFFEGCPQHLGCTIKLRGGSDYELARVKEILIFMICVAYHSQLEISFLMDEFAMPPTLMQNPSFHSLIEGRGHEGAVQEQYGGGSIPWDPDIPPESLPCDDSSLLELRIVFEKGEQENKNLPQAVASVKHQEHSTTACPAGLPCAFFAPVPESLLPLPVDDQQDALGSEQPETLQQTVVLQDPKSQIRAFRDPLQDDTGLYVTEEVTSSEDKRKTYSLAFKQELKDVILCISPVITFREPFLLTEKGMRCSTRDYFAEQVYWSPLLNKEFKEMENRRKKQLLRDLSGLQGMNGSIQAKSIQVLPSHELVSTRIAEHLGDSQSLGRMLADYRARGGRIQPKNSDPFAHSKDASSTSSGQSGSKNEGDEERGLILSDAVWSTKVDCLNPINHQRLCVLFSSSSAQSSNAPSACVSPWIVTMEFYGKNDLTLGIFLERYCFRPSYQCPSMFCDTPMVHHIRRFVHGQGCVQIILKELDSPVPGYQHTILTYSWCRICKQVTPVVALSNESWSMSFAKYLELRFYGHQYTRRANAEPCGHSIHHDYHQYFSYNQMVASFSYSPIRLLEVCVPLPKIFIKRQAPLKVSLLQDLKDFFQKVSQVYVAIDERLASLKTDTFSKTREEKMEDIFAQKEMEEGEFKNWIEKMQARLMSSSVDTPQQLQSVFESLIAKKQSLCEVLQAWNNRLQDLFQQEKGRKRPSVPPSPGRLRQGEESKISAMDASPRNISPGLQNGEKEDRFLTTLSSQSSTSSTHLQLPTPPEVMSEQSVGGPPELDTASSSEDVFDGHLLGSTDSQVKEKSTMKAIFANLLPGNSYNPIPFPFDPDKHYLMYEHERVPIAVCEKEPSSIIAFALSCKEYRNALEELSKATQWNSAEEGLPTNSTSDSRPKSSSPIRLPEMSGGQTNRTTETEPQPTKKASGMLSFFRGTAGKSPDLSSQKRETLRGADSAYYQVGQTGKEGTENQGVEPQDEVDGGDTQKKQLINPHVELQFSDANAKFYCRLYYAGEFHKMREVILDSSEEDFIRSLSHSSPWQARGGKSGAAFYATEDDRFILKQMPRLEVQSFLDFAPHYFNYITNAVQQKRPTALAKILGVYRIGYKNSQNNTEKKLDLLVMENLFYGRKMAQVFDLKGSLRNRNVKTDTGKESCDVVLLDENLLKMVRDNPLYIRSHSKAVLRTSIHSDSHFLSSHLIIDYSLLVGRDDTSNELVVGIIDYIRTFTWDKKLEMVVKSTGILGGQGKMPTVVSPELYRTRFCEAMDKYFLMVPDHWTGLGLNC
Sequence of Serine/threonine-protein kinase TAO1 (Homo sapiens) (Q7L7X3 whole entry): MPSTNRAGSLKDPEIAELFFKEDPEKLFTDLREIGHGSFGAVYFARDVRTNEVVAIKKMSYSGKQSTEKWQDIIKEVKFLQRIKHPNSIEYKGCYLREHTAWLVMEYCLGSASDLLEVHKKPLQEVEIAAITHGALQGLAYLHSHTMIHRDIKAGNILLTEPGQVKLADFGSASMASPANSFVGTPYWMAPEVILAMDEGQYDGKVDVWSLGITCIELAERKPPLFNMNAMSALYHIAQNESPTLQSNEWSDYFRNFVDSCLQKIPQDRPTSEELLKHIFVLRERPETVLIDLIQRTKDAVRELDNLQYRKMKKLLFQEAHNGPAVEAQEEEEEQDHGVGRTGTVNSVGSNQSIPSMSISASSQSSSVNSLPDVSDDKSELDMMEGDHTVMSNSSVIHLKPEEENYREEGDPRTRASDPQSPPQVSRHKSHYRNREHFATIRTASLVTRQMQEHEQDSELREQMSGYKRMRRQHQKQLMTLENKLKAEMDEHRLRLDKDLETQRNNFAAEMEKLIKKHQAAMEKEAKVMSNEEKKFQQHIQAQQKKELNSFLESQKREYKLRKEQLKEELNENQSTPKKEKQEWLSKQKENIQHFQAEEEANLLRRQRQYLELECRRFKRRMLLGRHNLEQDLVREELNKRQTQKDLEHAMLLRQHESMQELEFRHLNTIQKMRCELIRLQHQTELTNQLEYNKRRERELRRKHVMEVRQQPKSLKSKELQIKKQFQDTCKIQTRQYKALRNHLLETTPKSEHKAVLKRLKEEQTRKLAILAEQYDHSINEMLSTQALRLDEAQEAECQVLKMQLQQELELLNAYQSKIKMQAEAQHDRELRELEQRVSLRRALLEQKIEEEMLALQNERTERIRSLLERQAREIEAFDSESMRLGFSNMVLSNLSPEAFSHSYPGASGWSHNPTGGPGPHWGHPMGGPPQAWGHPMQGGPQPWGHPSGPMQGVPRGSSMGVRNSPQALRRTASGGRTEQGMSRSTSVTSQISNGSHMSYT
Sequence of Serine/threonine-protein kinase Nek6 (Homo sapiens) (Q9HC98 whole entry): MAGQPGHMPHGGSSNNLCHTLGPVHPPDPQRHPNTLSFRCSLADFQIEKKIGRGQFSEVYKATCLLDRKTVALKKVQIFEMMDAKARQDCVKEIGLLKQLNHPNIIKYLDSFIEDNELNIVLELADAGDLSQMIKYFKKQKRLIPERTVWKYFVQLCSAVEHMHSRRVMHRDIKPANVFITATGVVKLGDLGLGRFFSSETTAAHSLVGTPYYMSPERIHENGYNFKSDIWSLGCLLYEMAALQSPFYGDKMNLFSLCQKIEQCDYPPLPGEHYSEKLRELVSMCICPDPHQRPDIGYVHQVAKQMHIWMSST
Sequence of Peripheral plasma membrane protein CASK (Homo sapiens) (O14936 whole entry): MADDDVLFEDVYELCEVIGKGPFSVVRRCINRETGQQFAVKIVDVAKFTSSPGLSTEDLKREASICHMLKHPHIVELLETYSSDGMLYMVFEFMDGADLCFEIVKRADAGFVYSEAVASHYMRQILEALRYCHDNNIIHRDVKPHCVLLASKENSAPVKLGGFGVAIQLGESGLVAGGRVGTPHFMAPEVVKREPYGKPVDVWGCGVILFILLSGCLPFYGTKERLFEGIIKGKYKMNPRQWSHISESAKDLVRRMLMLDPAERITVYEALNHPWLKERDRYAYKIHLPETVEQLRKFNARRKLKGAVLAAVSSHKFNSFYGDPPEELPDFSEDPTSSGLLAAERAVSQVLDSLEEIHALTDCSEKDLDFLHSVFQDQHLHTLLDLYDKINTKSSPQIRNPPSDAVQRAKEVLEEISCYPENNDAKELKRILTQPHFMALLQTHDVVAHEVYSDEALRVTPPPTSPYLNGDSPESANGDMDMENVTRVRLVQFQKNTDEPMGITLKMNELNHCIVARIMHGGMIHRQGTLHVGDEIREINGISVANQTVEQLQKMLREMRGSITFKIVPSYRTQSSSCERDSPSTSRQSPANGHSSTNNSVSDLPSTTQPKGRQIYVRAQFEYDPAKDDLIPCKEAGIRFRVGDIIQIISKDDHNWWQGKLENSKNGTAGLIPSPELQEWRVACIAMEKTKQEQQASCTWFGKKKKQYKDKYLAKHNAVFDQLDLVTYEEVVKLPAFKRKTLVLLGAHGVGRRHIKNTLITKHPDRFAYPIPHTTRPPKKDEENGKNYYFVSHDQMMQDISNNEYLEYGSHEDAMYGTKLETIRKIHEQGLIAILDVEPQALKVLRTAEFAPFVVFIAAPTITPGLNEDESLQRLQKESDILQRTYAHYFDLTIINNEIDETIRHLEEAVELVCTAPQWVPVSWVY

CN(C)C(=O)Cn1cc(-c2nc(C3(c4ccc(-c5cnc(N)nc5)cc4)CC3)no2)cn1 [BI 0153]
inactive: residual activity [1] 89% | residual activity [2] 76% | residual activity [3] 100% | residual activity [4] 98% | residual activity [5] 81% | residual activity [6] 95% | residual activity [7] 99% | residual activity [8] 86% | residual activity [9] 94% | residual activity [10] 100% | residual activity [11] 97% | residual activity [12] 100% | residual activity [13] 100% | inhibition [14] 3.45% | residual activity [15] 96%

CN(C)C(=O)Cn1cc(-c2nc([C@@](C)(c3ccc(-c4cnc(N)nc4)cc3)C3CC3)no2)cn1 [BI 665915]
inactive: residual activity [1] 62% | residual activity [2] 82% | residual activity [3] 88% | residual activity [4] 68% | residual activity [5] 100% | residual activity [6] 100% | residual activity [7] 100% | residual activity [8] 75% | residual activity [9] 96% | residual activity [10] 97% | residual activity [11] 94% | residual activity [12] 96% | residual activity [13] 85% | inhibition [14] 11% | residual activity [15] 91%
